Source: patent US20240116893A1, “Compounds for Disease Treatment” (Duke University, priority 2021, published 2024)
Entries after “also recorded” stand apart in the source; their conditions may differ. Like-named read-outs stand apart in the source and are kept apart here.

Experiments:
TAK1 [1] = molecular target: T1, TAK1 (Homo sapiens (Human), UniProt O43318); assay: TAK1 kinase inhibition IC50 (TABLE 1; FIG. 1B selectivity screening); type: biochemical
Target sequence in this assay (O43318 31-303): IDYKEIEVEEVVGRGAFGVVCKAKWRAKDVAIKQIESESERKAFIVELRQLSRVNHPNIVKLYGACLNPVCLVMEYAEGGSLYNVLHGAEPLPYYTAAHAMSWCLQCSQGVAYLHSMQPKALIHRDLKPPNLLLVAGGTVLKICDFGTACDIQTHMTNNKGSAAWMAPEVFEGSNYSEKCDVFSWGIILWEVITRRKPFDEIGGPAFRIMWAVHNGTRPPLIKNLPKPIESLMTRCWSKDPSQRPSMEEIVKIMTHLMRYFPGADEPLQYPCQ
Target sequence in this assay (Q15750 468-497 partner): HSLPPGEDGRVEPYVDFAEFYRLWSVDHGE

IRAK4 = IRAK4 (Homo sapiens (Human), UniProt Q9NWZ3); assay: IRAK4 kinase inhibition IC50 (TABLE 1; FIG. 1B selectivity screening); type: biochemical; details: for Ratio IC50 (IRAK4)/IC50 (TAK1): selectivity for TAK1 over IRAK4
IRAK4, sequence (Q9NWZ3 whole entry): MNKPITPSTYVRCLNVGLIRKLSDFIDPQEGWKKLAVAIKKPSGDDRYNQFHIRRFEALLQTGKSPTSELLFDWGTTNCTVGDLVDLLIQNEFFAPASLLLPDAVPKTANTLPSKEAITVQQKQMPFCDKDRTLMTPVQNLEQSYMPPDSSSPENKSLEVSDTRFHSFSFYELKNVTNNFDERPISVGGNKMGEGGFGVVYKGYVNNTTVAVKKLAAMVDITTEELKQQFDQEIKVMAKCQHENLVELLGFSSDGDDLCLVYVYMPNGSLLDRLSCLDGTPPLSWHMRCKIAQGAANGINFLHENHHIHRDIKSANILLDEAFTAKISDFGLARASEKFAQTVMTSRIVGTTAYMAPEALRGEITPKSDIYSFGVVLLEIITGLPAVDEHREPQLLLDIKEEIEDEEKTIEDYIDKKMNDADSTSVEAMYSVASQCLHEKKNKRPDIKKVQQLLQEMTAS

[2] = Bioavailability of compound 1 (takinib); details: in vivo
[3] = tested on: Collagen Type II Induced Arthritis (CIA); assay: CIA mouse model of inflammatory arthritis; type: in vivo, DBA/1 mice; details: for reduction of clinical arthritis score: QD, FIG. 5A; for reduction in disease clinical score (AUC): FIG. 5B
THP-1 human macrophages = assay: Cytokine expression in THP-1 macrophages stimulated with LPS and IFNγ; type: cell-based; details: for attenuation (reduction) of TNF expression: 10 μM, LPS and IFNγ, FIG. 1C
Experimental: THP-1 cells were treated with 100 nM phorbol 12-myristate 13-acetate (PMA) for 72 hours in RPMI 1640X media. Cells were rested in PMA free media 24 hours prior to treatments. LPS (10 ng/mL) was used for pro-inflammatory stimulation.
THP-1 cells were treated with 10 μM of designated drug or vehicle (DMSO) and 24 hours after treatment, supernatant was added to Human Cytokine XL proteome array (R&D Systems) in accordance with manufacturer protocol. Chemiluminescence was used to visualize protein quantities.
To evaluate the anti-inflammatory effects of compounds 3, 5, and 6, THP-1 human macrophages were stimulated with LPS and IFNγ in the presence of TAK1 inhibitor (10 μM) or vehicle.

CK1γ2 = CK1γ2 (Homo sapiens (Human), UniProt P78368); assay: Kinase panel of 146 human kinases at 10 μM; type: biochemical
CK1γ2, sequence (P78368 whole entry): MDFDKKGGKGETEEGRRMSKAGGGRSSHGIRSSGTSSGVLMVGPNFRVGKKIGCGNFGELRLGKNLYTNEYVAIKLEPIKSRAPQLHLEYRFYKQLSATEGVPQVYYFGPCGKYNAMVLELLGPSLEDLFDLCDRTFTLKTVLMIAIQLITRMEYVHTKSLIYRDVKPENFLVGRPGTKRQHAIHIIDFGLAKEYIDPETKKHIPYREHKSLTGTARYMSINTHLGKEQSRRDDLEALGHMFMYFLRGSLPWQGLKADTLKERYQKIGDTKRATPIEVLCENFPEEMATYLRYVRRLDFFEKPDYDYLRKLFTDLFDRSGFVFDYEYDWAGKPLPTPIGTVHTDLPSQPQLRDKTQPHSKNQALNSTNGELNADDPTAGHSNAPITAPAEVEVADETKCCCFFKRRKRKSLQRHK
From the text: (§1) Kinome selectivity of compound 5 was further screened using a kinase panel of 146 human kinases representing all gene family members within the human kinome.

IRAK1 [4] = molecular target: T2, IRAK1 (Homo sapiens (Human), UniProt P51617); assay: Kinase panel of 146 human kinases at 10 μM; type: biochemical
T2 sequence (P51617 whole entry): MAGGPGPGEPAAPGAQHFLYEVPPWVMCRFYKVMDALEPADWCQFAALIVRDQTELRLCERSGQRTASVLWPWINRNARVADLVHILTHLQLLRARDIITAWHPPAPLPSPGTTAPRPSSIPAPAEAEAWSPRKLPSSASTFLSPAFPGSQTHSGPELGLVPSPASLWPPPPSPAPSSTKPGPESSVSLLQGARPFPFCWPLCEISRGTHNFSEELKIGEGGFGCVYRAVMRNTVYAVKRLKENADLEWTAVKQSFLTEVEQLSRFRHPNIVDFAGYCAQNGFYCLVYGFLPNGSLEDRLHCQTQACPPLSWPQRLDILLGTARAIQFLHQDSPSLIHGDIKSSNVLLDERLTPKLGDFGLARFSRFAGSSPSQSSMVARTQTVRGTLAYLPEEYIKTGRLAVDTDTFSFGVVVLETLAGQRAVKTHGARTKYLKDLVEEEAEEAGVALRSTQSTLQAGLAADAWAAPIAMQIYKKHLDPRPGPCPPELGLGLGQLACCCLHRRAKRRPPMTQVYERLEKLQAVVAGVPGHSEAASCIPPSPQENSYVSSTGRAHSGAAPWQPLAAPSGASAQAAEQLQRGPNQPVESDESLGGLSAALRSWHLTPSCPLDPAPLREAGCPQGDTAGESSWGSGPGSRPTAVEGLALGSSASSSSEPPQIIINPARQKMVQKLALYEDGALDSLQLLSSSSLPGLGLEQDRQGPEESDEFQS
From the text: as §1

MAP4K5 [5] = molecular target: T3, MAP4K5 (Homo sapiens (Human), UniProt Q9Y4K4); assay: Kinase panel of 146 human kinases at 10 μM; type: biochemical
T3 sequence (Q9Y4K4 whole entry): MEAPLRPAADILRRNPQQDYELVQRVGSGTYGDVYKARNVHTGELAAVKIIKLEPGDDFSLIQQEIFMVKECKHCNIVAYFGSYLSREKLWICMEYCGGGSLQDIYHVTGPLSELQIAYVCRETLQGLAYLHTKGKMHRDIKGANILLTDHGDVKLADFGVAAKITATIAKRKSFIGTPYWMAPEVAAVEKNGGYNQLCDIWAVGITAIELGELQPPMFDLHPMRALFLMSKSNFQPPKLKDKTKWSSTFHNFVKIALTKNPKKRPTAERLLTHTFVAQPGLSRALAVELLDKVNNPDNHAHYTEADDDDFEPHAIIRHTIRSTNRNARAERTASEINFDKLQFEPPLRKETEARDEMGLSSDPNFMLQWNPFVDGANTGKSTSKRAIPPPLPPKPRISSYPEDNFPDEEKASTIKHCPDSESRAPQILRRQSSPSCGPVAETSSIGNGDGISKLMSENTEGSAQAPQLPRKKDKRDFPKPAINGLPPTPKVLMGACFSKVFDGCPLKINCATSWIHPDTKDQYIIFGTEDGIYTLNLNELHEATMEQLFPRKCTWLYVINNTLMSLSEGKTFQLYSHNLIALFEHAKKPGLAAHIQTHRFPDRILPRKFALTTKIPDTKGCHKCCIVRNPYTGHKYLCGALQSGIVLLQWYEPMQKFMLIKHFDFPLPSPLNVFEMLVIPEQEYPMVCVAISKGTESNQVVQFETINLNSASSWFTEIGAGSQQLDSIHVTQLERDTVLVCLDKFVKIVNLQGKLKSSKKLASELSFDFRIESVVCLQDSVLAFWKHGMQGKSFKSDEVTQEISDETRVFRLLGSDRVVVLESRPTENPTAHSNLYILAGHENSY
From the text: as §1

NUAK1 = NUAK1 (Homo sapiens (Human), UniProt O60285); assay: Kinase panel of 146 human kinases at 10 μM; type: biochemical
NUAK1, sequence (O60285 whole entry): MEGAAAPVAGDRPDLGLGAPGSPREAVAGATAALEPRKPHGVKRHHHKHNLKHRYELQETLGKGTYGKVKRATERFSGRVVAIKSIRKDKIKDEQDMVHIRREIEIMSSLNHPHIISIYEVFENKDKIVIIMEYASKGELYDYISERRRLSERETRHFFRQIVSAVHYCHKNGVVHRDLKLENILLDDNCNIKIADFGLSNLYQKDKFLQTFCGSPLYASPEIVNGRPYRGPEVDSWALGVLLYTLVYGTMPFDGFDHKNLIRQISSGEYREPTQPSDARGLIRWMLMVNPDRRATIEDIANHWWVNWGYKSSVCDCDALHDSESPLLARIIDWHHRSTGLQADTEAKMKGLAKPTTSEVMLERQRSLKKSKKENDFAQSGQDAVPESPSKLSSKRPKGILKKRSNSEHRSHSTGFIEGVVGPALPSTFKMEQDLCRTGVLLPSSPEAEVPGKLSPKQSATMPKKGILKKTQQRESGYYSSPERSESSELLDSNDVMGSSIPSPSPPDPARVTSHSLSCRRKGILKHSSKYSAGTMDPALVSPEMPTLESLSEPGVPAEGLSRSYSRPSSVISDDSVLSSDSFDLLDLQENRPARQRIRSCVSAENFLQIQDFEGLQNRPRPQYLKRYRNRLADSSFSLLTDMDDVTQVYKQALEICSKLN
From the text: as §1

TAK1 [6] = molecular target: T1, TAK1; assay: Kinase panel of 146 human kinases at 10 μM; type: biochemical
From the text: as §1
Target sequence in this assay (O43318 1-303): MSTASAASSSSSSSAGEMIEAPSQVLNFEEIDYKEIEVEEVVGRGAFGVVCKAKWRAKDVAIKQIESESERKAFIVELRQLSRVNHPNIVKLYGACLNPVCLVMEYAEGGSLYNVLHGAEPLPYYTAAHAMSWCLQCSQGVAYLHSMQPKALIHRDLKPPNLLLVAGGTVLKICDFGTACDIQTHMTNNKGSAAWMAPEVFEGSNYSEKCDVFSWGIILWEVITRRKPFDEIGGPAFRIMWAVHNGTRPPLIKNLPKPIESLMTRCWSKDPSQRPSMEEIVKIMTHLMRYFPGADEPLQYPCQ
Target sequence in this assay (Q15750 437-504 partner): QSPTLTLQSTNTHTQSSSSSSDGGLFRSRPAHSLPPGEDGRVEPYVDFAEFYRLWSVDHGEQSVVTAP

ULK2 [7] = molecular target: T4, ULK2 (Homo sapiens (Human), UniProt Q8IYT8); assay: Kinase panel of 146 human kinases at 10 μM; type: biochemical
T4 sequence (Q8IYT8 whole entry): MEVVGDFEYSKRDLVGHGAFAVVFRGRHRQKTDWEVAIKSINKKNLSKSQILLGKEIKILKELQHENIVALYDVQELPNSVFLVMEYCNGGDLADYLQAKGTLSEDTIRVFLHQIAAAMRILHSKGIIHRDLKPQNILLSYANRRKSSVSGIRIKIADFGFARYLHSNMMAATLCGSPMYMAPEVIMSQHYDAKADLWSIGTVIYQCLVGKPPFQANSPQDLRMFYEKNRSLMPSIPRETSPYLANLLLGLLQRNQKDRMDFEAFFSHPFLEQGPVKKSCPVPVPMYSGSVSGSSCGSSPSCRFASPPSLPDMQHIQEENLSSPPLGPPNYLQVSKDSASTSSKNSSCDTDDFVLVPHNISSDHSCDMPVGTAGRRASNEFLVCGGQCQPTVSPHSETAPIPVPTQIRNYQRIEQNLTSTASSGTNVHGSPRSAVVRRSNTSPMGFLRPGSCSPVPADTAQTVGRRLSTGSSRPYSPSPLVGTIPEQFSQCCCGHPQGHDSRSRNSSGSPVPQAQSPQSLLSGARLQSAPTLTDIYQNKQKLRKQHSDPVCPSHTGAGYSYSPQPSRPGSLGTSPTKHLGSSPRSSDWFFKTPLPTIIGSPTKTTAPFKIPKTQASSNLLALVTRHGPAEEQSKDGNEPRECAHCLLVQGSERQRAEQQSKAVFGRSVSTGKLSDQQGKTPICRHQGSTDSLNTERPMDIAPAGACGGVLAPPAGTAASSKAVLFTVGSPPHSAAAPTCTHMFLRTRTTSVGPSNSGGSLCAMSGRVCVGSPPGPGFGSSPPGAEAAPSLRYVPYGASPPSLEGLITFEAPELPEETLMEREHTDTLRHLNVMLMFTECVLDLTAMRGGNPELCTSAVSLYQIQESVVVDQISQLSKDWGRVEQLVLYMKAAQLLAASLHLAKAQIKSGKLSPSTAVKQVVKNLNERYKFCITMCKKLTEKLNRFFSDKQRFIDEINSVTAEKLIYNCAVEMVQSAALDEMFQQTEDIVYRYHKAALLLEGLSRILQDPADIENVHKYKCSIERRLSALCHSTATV
From the text: as §1

CAMKKβ-1 = CAMKKβ-1 (Homo sapiens (Human), UniProt Q96RR4); assay: Dose-response of top 10 kinases (FIG. 1A); type: biochemical; details: read-out: half maximal inhibitory concentration (IC50) CAMKKβ-1
Experimental: (§2) Next, dose-response experiments of the top 10 kinases inhibited by compound 5 in the initial kinome screen were conducted as described in EXAMPLE 5. […] The top 10 kinases were selected in an initial kinome screen.

CLK2 = CLK2 (Homo sapiens (Human), UniProt P49760); assay: Dose-response of top 10 kinases (FIG. 1A); type: biochemical; details: read-out: half maximal inhibitory concentration (IC50) CLK2
Experimental: as §2

CSNK1G2 = CSNK1G2 (Homo sapiens (Human), UniProt P78368); assay: Dose-response of top 10 kinases (FIG. 1A); type: biochemical; details: read-out: half maximal inhibitory concentration (IC50) CSNK1G2
Experimental: as §2

GCK = GCK (Homo sapiens (Human), UniProt Q12851); assay: Dose-response of top 10 kinases (FIG. 1A); type: biochemical; details: read-out: half maximal inhibitory concentration (IC50) GCK
Experimental: as §2

IRAK1 [8] = molecular target: T2, IRAK1; assay: Dose-response of top 10 kinases (FIG. 1A); type: biochemical; details: read-out: half maximal inhibitory concentration (IC50) IRAK1
Experimental: as §2

MAP4K5 [9] = molecular target: T3, MAP4K5; assay: Dose-response of top 10 kinases (FIG. 1A); type: biochemical; details: read-out: half maximal inhibitory concentration (IC50) MAP4K5
Experimental: as §2

MLK1 = MLK1 (Homo sapiens (Human), UniProt P80192); assay: Dose-response of top 10 kinases (FIG. 1A); type: biochemical; details: read-out: half maximal inhibitory concentration (IC50) MLK1
Experimental: as §2

NUAK = NUAK (Homo sapiens (Human), UniProt O60285); assay: Dose-response of top 10 kinases (FIG. 1A); type: biochemical; details: read-out: half maximal inhibitory concentration (IC50) NUAK
NUAK, sequence (O60285 whole entry): as the sequence (O60285 whole entry) above
Experimental: as §2

TAK1 [10] = molecular target: T1, TAK1; assay: Dose-response of top 10 kinases (FIG. 1A); type: biochemical; details: read-out: half maximal inhibitory concentration (IC50) TAK1
Experimental: as §2
Target sequence in this assay (O43318 1-303): as the sequence (O43318 1-303) above
Target sequence in this assay (Q15750 437-504 partner): as the sequence (Q15750 437-504 partner) above

ULK2 [11] = molecular target: T4, ULK2; assay: Dose-response of top 10 kinases (FIG. 1A); type: biochemical; details: read-out: half maximal inhibitory concentration (IC50) ULK2
Experimental: as §2

[12] = Pharmacokinetics after oral gavage in rats (plasma and urine, LC-MS); type: in vivo, Sprague Dawley rats
Experimental: All serum/drug samples were frozen and stored at −80° C., unless otherwise specified. […] This internal standard solution was used for tissue homogenization. LC-MS analysis was performed at the Duke Proteomics and Metabolomics Core Facility.

[13] = tested on: Enbrel® refractory arthritis; assay: Enbrel refractory CIA rheumatoid arthritis mouse model; type: in vivo, mice; details: twice daily PO after etanercept days 21-30; n=6; FIG. 4E
From the text: To that end, a recently developed pre-clinical model of Enbrel® refractory arthritis was utilized, in which mice develop neutralizing antibodies towards Enbrel® causing disease relapse mirroring patient populations. Using this model, mice (n=6) were initially treated with Enbrel® on days 21-30 until loss of efficacy (determined by an arthritic score of 1.5) around study days 29 to 31 showing the development of neutralizing antibodies and disease progression. At this point, a first treatment group was switched to once daily vehicle (DMSO, PO) from day 30 to day 36, and a second treatment group was switched to twice daily compound 5 (PO).

[14] = Maximum tolerated dose / 14-day oral toxicology study; type: in vivo; details: 5, 30, 50 and 100 mg/kg PO once daily, 14 days
Experimental: Maximum tolerated dose studies and toxicology of compound 5 further established the safety and tolerance of this compound. Here, mice were treated daily with compound 5 (PO) at 5, 30, 50 and 100 mg/kg dosing for […] consecutive days. Daily body weights were taken as well as clinical observations.
Next, and as further described in EXAMPLE 9, a 14-day toxicology study of orally administered compound 5 in CD-1 mice (n=4) was conducted, using daily oral doses of 5, 30, 50 and 100 mg/kg of compound 5. In this study, the change in body weight from baseline as well as the weight of various organs were measured.

Water solubility = type: physicochemical
[15] = 50 mg/kg IP, all joints, FIG. 3E

For `CCCn1/c(=N/C(=O)c2cccc(C(N)=O)c2)[nH]c2ccc(CO)cc21` [Compound 4], the IC50 (TAK1 [1]; read-out: IC50 (TAK1)) was 2.6 nM, the IC50 (IRAK4; read-out: IC50 (IRAK4)) was 48 nM and the “Ratio IC50 (IRAK4)/IC50 (TAK1)” value (IRAK4) was 18.

For “takinib [Compound 1, reference compound]”, the IC50 (TAK1 [1]; read-out: IC50 (TAK1)) was 9 nM, the “affinity for IRAK4 less than TAK1” value (IRAK4) was about 12 fold and the IC50 (IRAK4; read-out: IC50 (IRAK4)) was 120 nM. For the same molecule, the “Ratio IC50 (IRAK4)/IC50 (TAK1)” value (IRAK4) was 13 and the bioavailability [2] was “low”.

With etanercept the “reduction in clinical arthritis scores vs vehicle” value ([3]; 10 mg/kg, IP, once daily, FIG. 4B) was 57%.

With `C[C@@H]1CCN(C(=O)CC#N)C[C@@H]1N(C)c1ncnc2[nH]ccc12` [tofacitinib, reference compound] the TNF secretion (THP-1 human macrophages; LPS and IFNγ challenge, FIG. 1D) was “minimal to no TNF reduction” and the “reduction in clinical arthritis scores vs vehicle” value ([3]; 30 mg/kg, PO, twice daily (BID), FIG. 4D) was 50%.

In the case of `CCCn1/c(=N/C(=O)c2cccc(C(N)=O)c2)[nH]c2ccc(CN3CCCCC3)cc21` [Compound 5], the IC50 (TAK1 [1]; selectivity screening, FIG. 1B, read-out: TAK1 inhibition IC50) is reported as 2.5 nM, the IC50 (IRAK4; read-out: IC50 (IRAK4)) is reported as 2500 nM and the IC50 (IRAK4; selectivity screening, FIG. 1B, read-out: IRAK4 inhibition IC50) is reported as 2510 nM. For the same molecule, the “enzymatic activity of CK1γ2” value (CK1γ2) was under 15 % enzymatic activity, the “enzymatic activity of IRAK1” value (IRAK1 [4]) was under 15 % enzymatic activity and the “enzymatic activity of MAP4K5” value (MAP4K5 [5]) was under 15 % enzymatic activity. For the same molecule, the “enzymatic activity of NUAK1” value (NUAK1) was under 15 % enzymatic activity, the “enzymatic activity of TAK1” value (TAK1 [6]) was under 15 % enzymatic activity and the “enzymatic activity of ULK2” value (ULK2 [7]) was under 15 % enzymatic activity. For the same molecule, the IC50 (CAMKKβ-1) was 1280 nM, the IC50 (CLK2) was 29 nM and the IC50 (CSNK1G2) was 809 nM. For the same molecule, the IC50 (GCK) was 33 nM, the IC50 (IRAK1 [8]) was 264 nM and the IC50 (MAP4K5 [9]) was 124 nM. For the same molecule, the IC50 (MLK1) was 5590 nM, the IC50 (NUAK) was 270 nM and the IC50 (TAK1 [10]) was 8 nM. The IC50 (ULK2 [11]) was 63 nM, the “attenuation (reduction) of TNF expression” value (THP-1 human macrophages) was 11 fold and the “time of Cmax post gavage” value ([12]; 50 mg/kg oral gavage) was 2 h. For the same molecule, the “time post gavage up to which M (μM) plasma concentration was shown” value ([12]; 50 mg/kg oral gavage) was 8 to 12 h, the “peak in urine concentration” value ([12]; 50 mg/kg oral gavage, at 12 hours) was 100 µM and the Cmax ([12]; male, Sprague Dawley, rat, plasma, 50 mg/kg oral gavage) was 1890 nM. For the same molecule, the oral bioavailability ([12]; rat, in vivo, po) was “high”, the “reduction of clinical arthritis score” value ([3]; 10 mg/kg, PO) was 18% and the “reduction of clinical arthritis score” value ([3]; 30 mg/kg, PO) was 35%. The “reduction of AUC of clinical arthritis scores vs disease control” value ([3]; 50 mg/kg IP, QD days 21-26, Q2D days 27-36, FIG. 3C) was 85%, the “disease incidence on day 36” value ([3]; 50 mg/kg IP, QD days 21-26, Q2D days 27-36, n=12) was 75% and the “reduction of bone resorption score vs vehicle” value [3, 15] was 87%. The “reduction of cartilage damage score vs vehicle” value [3, 15] was 76%, the “reduction of inflammation score vs vehicle” value [3, 15] was 62% and the “reduction of pannus score vs vehicle” value [3, 15] was 86%. For the same molecule, the “reduction of periosteal bone formation score vs vehicle” value [3, 15] was 93%, the “reduction in clinical arthritis scores vs vehicle” value ([3]; 50 mg/kg, IP, once daily, FIG. 4A) was 85% and the “reduction in disease clinical score (AUC)” value ([3]; IP dosing (25 mg/kg, QD)) was 36%. For the same molecule, the “reduction in disease clinical score (AUC)” value ([3]; oral dosing (PO)) was 35%, the “reduction of arthritis score vs etanercept-refractory animals switched to vehicle” value [13] was 40% and the “blood chemistries or complete blood counts” value [14] was “no significant differences”. For the same molecule, the body weight change [14] was “no significant weight loss”, the morbidity [14] was “no signs of morbidity” and the “relative organ weights (liver, heart, thymus, kidneys, brain, spleen)” value [14] was “no significant weight loss; also recorded: did not cause any significant or dose-dependent changes; also recorded: not cause a significant or dose-dependent change”. The water solubility (Water solubility) was “good”.

In the case of `NC(=O)c1cccc(C(=O)/N=c2\[nH]c3ccc(CO)cc3n2[C@H]2CC[C@H](O)CC2)c1` [Compound 7], the IC50 (TAK1 [1]; read-out: IC50 (TAK1)) is reported as 1.6 nM, the IC50 (IRAK4) is reported as 8.2 nM and the “Ratio IC50 (IRAK4)/IC50 (TAK1)” value (IRAK4) is reported as 5.

With `CN(Cc1cnc2nc(N)nc(N)c2n1)c1ccc(C(=O)N[C@@H](CCC(=O)O)C(=O)O)cc1` [methotrexate, reference compound] the “reduction in clinical arthritis scores vs vehicle” value ([3]; 1 mg/kg, PO, once daily, FIG. 4C) was 72%.

In the case of `NC(=O)c1cccc(C(=O)/N=c2\[nH]c3cc(CN4CCCCC4)ccc3n2C2CCC(O)CC2)c1` (stereo not shown) [Compound 3], the IC50 (TAK1 [1]; read-out: IC50 (TAK1)) is reported as 2.8 nM, the IC50 (IRAK4; read-out: IC50 (IRAK4)) is reported as 8.5 nM and the “Ratio IC50 (IRAK4)/IC50 (TAK1)” value (IRAK4) is reported as 3. For the same molecule, the “attenuation (reduction) of TNF expression” value (THP-1 human macrophages) was 2.5 fold, the urine levels ([12]; 50 mg/kg oral gavage) was “M urine levels up to 24 hours post gavage” and the “plasma levels across all timepoints” value ([12]; 50 mg/kg oral gavage, 1-24 hours) was “low nM”.
